Values after ≈ are worked out from the molar mass of the structure shown.

Data set [1] concerns Staphylococcus aureus. Nature of the data set: Antibacterial activity against methicillin-resistant Staphylococcus aureus clinical isolate MRSA-20 measured after 16 to 18 hrs by CLSI method. It counts as functional. As to conditions: time 16-18 hrs.
The test system of data set [2] is Staphylococcus aureus. Put plainly: Antibacterial activity against methicillin-resistant Staphylococcus aureus clinical isolate MRSA-23 measured after 16 to 18 hrs by CLSI method. The data set is classed as functional. As to conditions: time 16-18 hrs.
Data set [3] can be described thus: Selectivity index, ratio of HC50 for hemolytic activity in sheep erythrocytes to MIC for antibacterial activity against Staphylococcus aureus ATCC 29213. The data set is classed as toxicity, cell-based. The conditions noted are these: read-out: Selectivity Index.
Data set [4] is described as follows: Hemolytic activity in sheep erythrocytes incubated for 1 hr by absorbance based analysis. The data set is classed as toxicity, cell-based, Ovis aries, Erythrocyte.
The test system of data set [5] is Staphylococcus aureus. Put plainly: Antibacterial activity against Staphylococcus aureus ATCC 29213 measured after 16 to 18 hrs by CLSI method. As to conditions: time 16-18 hrs. The data set is classed as functional.
Data set [6] deals with Staphylococcus aureus. Put plainly: Antibacterial activity against methicillin-resistant Staphylococcus aureus clinical isolate MRSA-17 measured after 16 to 18 hrs by CLSI method. It counts as functional. The conditions noted are these: time 16-18 hrs.
In data set [7] the test system is Staphylococcus aureus. Put plainly: Antibacterial activity against methicillin-resistant Staphylococcus aureus clinical isolate MRSA-13 measured after 16 to 18 hrs by CLSI method. As to conditions: time 16-18 hrs. It counts as functional.
For data set [8], the system named is Staphylococcus aureus. Put plainly: Antibacterial activity against methicillin-resistant Staphylococcus aureus clinical isolate MRSA-14 measured after 16 to 18 hrs by CLSI method. As to conditions: time 16-18 hrs. The data set is classed as functional.
In data set [9] the test system is Staphylococcus aureus. Put plainly: Antibacterial activity against methicillin-resistant Staphylococcus aureus clinical isolate MRSA-16 measured after 16 to 18 hrs by CLSI method. The conditions noted are these: time 16-18 hrs. It counts as functional.
Data set [10] deals with Staphylococcus aureus. Put plainly: Antibacterial activity against methicillin-resistant Staphylococcus aureus clinical isolate MRSA-22 measured after 16 to 18 hrs by CLSI method. As to conditions: time 16-18 hrs. The data set is classed as functional.
The test system of data set [11] is Staphylococcus aureus. Nature of the data set: Antibacterial activity against methicillin-resistant Staphylococcus aureus clinical isolate MRSA-21 measured after 16 to 18 hrs by CLSI method. It counts as functional. The conditions noted are these: time 16-18 hrs.
The test system of another data set is Escherichia coli. Put plainly: Antibacterial activity against Escherichia coli ATCC25922 measured after 16 to 18 hrs by CLSI method. The data set is classed as functional. The conditions noted are these: time 16-18 hrs.
For data set [12], the system named is Staphylococcus aureus. Nature of the data set: Antibacterial activity against methicillin-resistant Staphylococcus aureus clinical isolate MRSA-18 measured after 16 to 18 hrs by CLSI method. The conditions noted are these: time 16-18 hrs. It counts as functional.
Data set [13] deals with Staphylococcus aureus. Put plainly: Antibacterial activity against methicillin-resistant Staphylococcus aureus clinical isolate MRSA-11 measured after 16 to 18 hrs by CLSI method. The data set is classed as functional. The conditions noted are these: time 16-18 hrs.

In the case of `COc1cc(OCCCCCN2CCOCC2)c(CC=C(C)C)c2c1C(=O)CC(c1ccc(OCCCCCN3CCOCC3)cc1)O2` (stereo not drawn), the MIC against Staphylococcus aureus [1], against Staphylococcus aureus [2], against Staphylococcus aureus [5], in the data set on Staphylococcus aureus [6], against Staphylococcus aureus [7] and against Staphylococcus aureus [8] was 16 µg/mL (≈ 24.1 µM) throughout. In addition, the MIC against Staphylococcus aureus [9] was 16 µg/mL (≈ 24.1 µM); in the data set with Staphylococcus aureus [10] it was 8 µg/mL (≈ 12 µM); in the data set on Staphylococcus aureus [11], 16 µg/mL (≈ 24.1 µM); in the data set with Escherichia coli it was more than 128 µg/mL; in the data set with Staphylococcus aureus [12] it was 16 µg/mL (≈ 24.1 µM); against Staphylococcus aureus [13], 16 µg/mL (≈ 24.1 µM). Further, the selectivity ratio in [3] was more than 80. This molecule also came in with an HC50 at 1 h in [4] of more than 1280 µg/mL.

Consider `COc1cc(OCCCN2CCN(C)CC2)c(CC=C(C)C)c2c1C(=O)CC(c1ccc(OCCCN3CCN(C)CC3)cc1)O2` (stereo not drawn), for which the MIC came out at 64 µg/mL (≈ 101 µM) with Staphylococcus aureus [1]; 64 µg/mL (≈ 101 µM) in the data set with Staphylococcus aureus [2]; 64 µg/mL (≈ 101 µM) against Staphylococcus aureus [5]; 32 µg/mL (≈ 50.4 µM) with Staphylococcus aureus [6]; 64 µg/mL (≈ 101 µM) in the data set with Staphylococcus aureus [7]; 64 µg/mL (≈ 101 µM) in the data set on Staphylococcus aureus [8]. Moreover, the MIC was 64 µg/mL (≈ 101 µM) in the data set with Staphylococcus aureus [9]; 32 µg/mL (≈ 50.4 µM) in the data set on Staphylococcus aureus [10]; 32 µg/mL (≈ 50.4 µM) against Staphylococcus aureus [11]; more than 128 µg/mL against Escherichia coli; 64 µg/mL (≈ 101 µM) against Staphylococcus aureus [12]; 32 µg/mL (≈ 50.4 µM) in the data set with Staphylococcus aureus [13]. Also, the selectivity ratio in data set [3] is more than 20. For the same molecule, the HC50 at 1 h in [4] was more than 1280 µg/mL.

Consider `COc1cc(OCCCCCN2CCCCC2)c(CC=C(C)C)c2c1C(=O)CC(c1ccc(OCCCCCN3CCCCC3)cc1)O2` (stereo not drawn), for which the MIC is 8 µg/mL (≈ 12.1 µM) against Staphylococcus aureus [1]; 8 µg/mL (≈ 12.1 µM) against Staphylococcus aureus [2]; 8 µg/mL (≈ 12.1 µM) with Staphylococcus aureus [5]; 4 µg/mL (≈ 6.05 µM) against Staphylococcus aureus [6]; 8 µg/mL (≈ 12.1 µM) with Staphylococcus aureus [7]; 8 µg/mL (≈ 12.1 µM) in the data set on Staphylococcus aureus [8]. The MIC with Staphylococcus aureus [9] is 8 µg/mL (≈ 12.1 µM); in the data set with Staphylococcus aureus [10], 8 µg/mL (≈ 12.1 µM); against Staphylococcus aureus [11], 8 µg/mL (≈ 12.1 µM); in the data set with Escherichia coli it was more than 128 µg/mL; in the data set with Staphylococcus aureus [12], 8 µg/mL (≈ 12.1 µM); against Staphylococcus aureus [13], 8 µg/mL (≈ 12.1 µM). Also, in data set [3], the selectivity ratio is 18.9. In addition, in [4], the HC50 at 1 h is 151 µg/mL.

Regarding `COc1cc(OCCCCN2CCCCC2)c(CC=C(C)C)c2c1C(=O)CC(c1ccc(OCCCCN3CCCCC3)cc1)O2` (stereo not drawn), the MIC against Staphylococcus aureus [1] was 16 µg/mL (≈ 25.3 µM); against Staphylococcus aureus [2] it was 16 µg/mL (≈ 25.3 µM); with Staphylococcus aureus [5], 32 µg/mL (≈ 50.6 µM); against Staphylococcus aureus [6], 16 µg/mL (≈ 25.3 µM); in the data set with Staphylococcus aureus [7], 16 µg/mL (≈ 25.3 µM); in the data set with Staphylococcus aureus [8] it was 32 µg/mL (≈ 50.6 µM). The MIC was 16 µg/mL (≈ 25.3 µM) against Staphylococcus aureus [9]; 16 µg/mL (≈ 25.3 µM) against Staphylococcus aureus [10]; 32 µg/mL (≈ 50.6 µM) against Staphylococcus aureus [11]; more than 128 µg/mL in the data set with Escherichia coli; 32 µg/mL (≈ 50.6 µM) against Staphylococcus aureus [12]; 16 µg/mL (≈ 25.3 µM) against Staphylococcus aureus [13]. Besides, the selectivity ratio in data set [3] is more than 6.2. The molecule further yielded an HC50 at 1 h in data set [4] of 199 µg/mL.

With `COc1cc(OCCCCN2CCC(C)CC2)c(CC=C(C)C)c2c1C(=O)CC(c1ccc(OCCCCN3CCC(C)CC3)cc1)O2` (stereo not drawn), the MIC in the data set with Staphylococcus aureus [1] was found to be 16 µg/mL (≈ 24.2 µM); against Staphylococcus aureus [2], 16 µg/mL (≈ 24.2 µM); against Staphylococcus aureus [5] it was 16 µg/mL (≈ 24.2 µM); against Staphylococcus aureus [6] it was 8 µg/mL (≈ 12.1 µM); with Staphylococcus aureus [7], 8 µg/mL (≈ 12.1 µM); in the data set with Staphylococcus aureus [8], 16 µg/mL (≈ 24.2 µM). Also, the MIC is 8 µg/mL (≈ 12.1 µM) in the data set on Staphylococcus aureus [9]; 8 µg/mL (≈ 12.1 µM) against Staphylococcus aureus [10]; 8 µg/mL (≈ 12.1 µM) in the data set with Staphylococcus aureus [11]; more than 128 µg/mL against Escherichia coli; 16 µg/mL (≈ 24.2 µM) in the data set on Staphylococcus aureus [12]; 16 µg/mL (≈ 24.2 µM) in the data set on Staphylococcus aureus [13]. The selectivity ratio in [3] is more than 40. In [4], this molecule showed an HC50 at 1 h of more than 640 µg/mL.

Take `CCCCN(CCCC)CCCOc1ccc(C2CC(=O)c3c(OC)cc(OCCCN(CCCC)CCCC)c(CC=C(C)C)c3O2)cc1` (stereo not drawn): the MIC against Staphylococcus aureus [1] was determined as 8 µg/mL (≈ 11.5 µM); against Staphylococcus aureus [2], 8 µg/mL (≈ 11.5 µM); with Staphylococcus aureus [5], 8 µg/mL (≈ 11.5 µM); in the data set on Staphylococcus aureus [6] it was 4 µg/mL (≈ 5.77 µM); in the data set with Staphylococcus aureus [7], 8 µg/mL (≈ 11.5 µM); with Staphylococcus aureus [8] it was 4 µg/mL (≈ 5.77 µM). Besides, the MIC with Staphylococcus aureus [9] was 4 µg/mL (≈ 5.77 µM); with Staphylococcus aureus [10], 4 µg/mL (≈ 5.77 µM); with Staphylococcus aureus [11], 8 µg/mL (≈ 11.5 µM); in the data set with Escherichia coli, more than 128 µg/mL; against Staphylococcus aureus [12], 8 µg/mL (≈ 11.5 µM); against Staphylococcus aureus [13], 8 µg/mL (≈ 11.5 µM). The selectivity ratio in data set [3] was 101. In [4], this molecule returned an HC50 at 1 h of 810 µg/mL.

Take `COc1cc(OCCCCCN2CCCCC2C)c(CC=C(C)C)c2c1C(=O)CC(c1ccc(OCCCCCN3CCCCC3C)cc1)O2` (stereo not drawn): the MIC in the data set on Staphylococcus aureus [1] came out at 16 µg/mL (≈ 23.2 µM); with Staphylococcus aureus [2], 16 µg/mL (≈ 23.2 µM); in the data set with Staphylococcus aureus [5], 32 µg/mL (≈ 46.4 µM); in the data set on Staphylococcus aureus [6], 8 µg/mL (≈ 11.6 µM); in the data set with Staphylococcus aureus [7], 16 µg/mL (≈ 23.2 µM); with Staphylococcus aureus [8], 16 µg/mL (≈ 23.2 µM). Further, the MIC in the data set with Staphylococcus aureus [9] was 8 µg/mL (≈ 11.6 µM); in the data set on Staphylococcus aureus [10], 16 µg/mL (≈ 23.2 µM); in the data set with Staphylococcus aureus [11], 8 µg/mL (≈ 11.6 µM); in the data set on Escherichia coli, more than 128 µg/mL; with Staphylococcus aureus [12], 16 µg/mL (≈ 23.2 µM); in the data set on Staphylococcus aureus [13], 16 µg/mL (≈ 23.2 µM). In data set [3], the selectivity ratio amounted to 9.1. In data set [4], this molecule gave an HC50 at 1 h of 292 µg/mL.
